Results reported in PMC9200625, “Identification and Functional Characterization of Peptides With Antimicrobial Activity From the Syphilis Spirochete, Treponema pallidum” (Frontiers in Microbiology, 2022).
Where two headings read alike, the source gives them in different places.

Assays:
[1] = tested on: S. pyogenes Unknown strain; Clinical Isolate; assay type: cell-based, Streptococcus pyogenes; settings: range over 3–9 independent experiments
Description: (§1) Bacterial strains used in this study were: E. coli ATCC 9723H, Pseudomonas aeruginosa ATCC 10148, Staphylococcus aureus ATCC 6538P (penicillin resistant), Streptococcus pyogenes (hospital isolate, strain unknown), Mycobacterium smegmatis MC^2155, N. gonorrhoeae ATCC 700825 (streptomycin resistant), and Salmonella enterica subsp. enterica serovar Typhimurium SL1344 (streptomycin resistant). E. coli, P. aeruginosa, S. aureus, M. smegmatis, and S. enterica were cultured aerobically at 37°C in Mueller Hinton broth (MHB) (Sigma-Aldrich, MO, United States) and on nonselective Mueller Hinton agar (MHA) plates. S. pyogenes was cultured in 5% carbon dioxide at 37°C in MHB supplemented with 5% lysed horse blood (Quad Five, MT, United States) (MHB + 5% HB) and on nonselective MHA plates supplemented with 5% defibrinated sheep blood (Quad Five, MT, United States) (MHA + 5% SB). N. gonorrhoeae was cultured in 5% carbon dioxide at 37°C in gonococcal (GC) chocolate broth medium and on nonselective GC agar plates [GC medium base (BD Difco, MD, United States) supplemented with 1% BBL™ hemoglobin (BD Biosciences, MD, United States) and 1% IsoVitaleX (BD Biosciences, MD, United States)]. Prior to antimicrobial susceptibility assays (as described below), N. gonorrhoeae cultures were subcultured on nonselective GC agar plates (as described above), to ensure bacterial viability. All bacterial stocks were stored in 20% glycerol at –80°C.
(§2) Bacterial suspensions were prepared by transferring bacterial colonies into MHB and resuspending using a vortex mixer to ensure complete suspension of any bacterial aggregates. Turbidity of the colony suspensions was adjusted spectrophotometrically to the required optical densities to achieve a turbidity equivalent to that of a 0.5 McFarland standard (1–2 × 10^8 CFU/mL) followed by dilution in MHB to achieve the standardized microbial inoculum of approximately 5 × 10^5 CFU/mL. Total viable counts (TVC) were routinely performed on all inoculum suspensions to ensure correct bacterial cell densities. The standardized bacterial suspensions were then incubated with two-fold serial dilutions of each peptide (dissolved in 11 μL of ultrapure sterile water; final peptide concentration range of 256 μg/mL–0.5 μg/mL) in Greiner polypropylene round bottom 96-well microtiter plates (Sigma-Aldrich, MO, United States). Each peptide was tested once per experiment, with a range of 3–9 independent experiments performed per peptide. Negative growth/sterility control wells contained bacterial growth media (100 μL) and the peptide solvent (11 μL of ultrapure sterile water). Positive growth control wells contained the standardized number of bacterial cells (100 μL of ∼ 5.0 × 10^5 CFU/mL) and peptide solvent (11 μL of ultrapure sterile water). Plates were incubated at 37°C for 16–24 h and MICs were determined using the unaided eye to identify the lowest concentration of AMP that inhibited visible growth of the tested bacterial species. If the sterility control well was turbid, the test was not considered valid. MBCs were determined by plating the entire content of the wells containing the peptide/bacteria mixture representing the MIC and the entire contents of the preceding wells containing two-fold and four-fold more concentrated AMP dilutions onto nonselective agar plates.

[2] = tested on: E. coli ATCC 9723H; assay type: cell-based; settings: range over 3–9 independent experiments
Description: as §1, §2

[3] = tested on: N. gonorrhoeae ATCC 700825; assay type: cell-based, Neisseria gonorrhoeae; settings: 3-h incubation 37°C 5% CO2, TVCs versus positive growth control, all of three to six independent experiments
Description: as §1
The potential antimicrobial activity of the T. pallidum peptides against N. gonorrhoeae was determined using a modified agar dilution method. In this assay, N. gonorrhoeae colonies from GC chocolate agar plates were resuspended in MHB and the turbidity of the suspension was adjusted, as described above, to achieve the standardized microbial inoculum of approximately 5 × 10^5 CFU/mL. A two-fold serial dilution of the peptides (11 μL in sterile ultrapure water) was then prepared in wells 1–10 of a 96-well sterile polypropylene plate to obtain a dilution series corresponding to 10 times the required testing concentrations (2,560, 1,280, 640, 320, 160, 80, 40, 20, 10, 5 μg/mL). The bacterial suspension (100 μL) was dispensed into the wells containing the peptides. A negative growth/sterility control (well 12) contained bacterial growth media (100 μL) and the peptide solvent (11 μL of ultrapure sterile water). A positive growth control (well 11) contained the standardized number of bacterial cells (100 μL of ∼ 5.0 × 10^5 CFU/mL) and peptide solvent (11 μL of ultrapure sterile water). The 96-well plate was then incubated at 37°C in an atmosphere of 5% CO2 for 3 h to allow for peptide binding and antimicrobial activity. After the incubation period, an aliquot (20 μL) from wells 1–12 was removed and spotted onto the surface of a GC chocolate agar plate. N. gonorrhoeae spotted plates and TVC plates were incubated at 37°C in an atmosphere of 5% CO2 for 18–24 h. […] To determine the bactericidal activity of peptides, total viable counts (TVCs) were also prepared on GC chocolate agar plates for the 3 h-incubated peptide/bacteria mixtures. These counts were compared with TVCs from the corresponding positive growth wells to give the percentage of bacteria killed by each of the peptides following the 3-h incubation.

[4] = tested on: M. smegmatis MC^2155; assay type: cell-based, Mycobacterium smegmatis; settings: range over 3–9 independent experiments
Description: as §1, §2

[5] = tested on: S. enterica SL1344; assay type: cell-based, Salmonella enterica subsp. enterica serovar Typhimurium; settings: range over 3–9 independent experiments
Description: as §1
(§3) Bacterial suspensions were prepared by transferring bacterial colonies into MHB and resuspending using a vortex mixer to ensure complete suspension of any bacterial aggregates. Turbidity of the colony suspensions was adjusted spectrophotometrically to the required optical densities to achieve a turbidity equivalent to that of a 0.5 McFarland standard (1–2 × 10^8 CFU/mL) followed by dilution in MHB to achieve the standardized microbial inoculum of approximately 5 × 10^5 CFU/mL. Total viable counts (TVC) were routinely performed on all inoculum suspensions to ensure correct bacterial cell densities. […] Plates were incubated at 37°C for 16–24 h and MICs were determined using the unaided eye to identify the lowest concentration of AMP that inhibited visible growth of the tested bacterial species. […] MBCs were determined by plating the entire content of the wells containing the peptide/bacteria mixture representing the MIC and the entire contents of the preceding wells containing two-fold and four-fold more concentrated AMP dilutions onto nonselective agar plates.

[6] = tested on: P. aeruginosa ATCC 10148; assay type: cell-based, Pseudomonas aeruginosa; settings: range over 3–9 independent experiments
Description: as §1, §2

[7] = tested on: S. aureus ATCC 6538P; assay type: cell-based, Staphylococcus aureus; settings: range over 3–9 independent experiments
Description: as §1, §3

[8] = wells at MIC, two-fold and four-fold higher plated on nonselective agar, 24 h 37°C
[9] = broth microdilution in MHB, ~5 × 10^5 CFU/mL, peptide 256–0.5 μg/mL two-fold dilutions, 37°C 16–24 h, visible growth by unaided eye

Q: Which results are given for `CC[C@H](C)[C@H](NC(=O)[C@H](CCCCN)NC(=O)[C@H](CCC(=O)O)NC(=O)[C@H](CCCCN)NC(=O)[C@H](CO)NC(=O)[C@H](CCCCN)NC(=O)[C@H](CCCNC(=N)N)NC(=O)[C@H](Cc1ccccc1)NC(=O)[C@H](Cc1ccccc1)NC(=O)[C@H](CC(=O)O)NC(=O)CNC(=O)[C@H](CC(C)C)NC(=O)[C@@H](N)CC(C)C)C(=O)NCC(=O)N[C@@H](CCCCN)C(=O)N[C@@H](CCC(=O)O)C(=O)N[C@@H](Cc1ccccc1)C(=O)N[C@@H](CCCCN)C(=O)N[C@@H](CCCNC(=N)N)C(=O)N[C@H](C(=O)N[C@H](C(=O)N[C@@H](CCC(N)=O)C(=O)N[C@@H](CCCNC(=N)N)C(=O)N[C@H](C(=O)N[C@@H](CCCCN)C(=O)N[C@@H](CC(=O)O)C(=O)N[C@@H](Cc1ccccc1)C(=O)N[C@@H](CC(C)C)C(=O)N[C@@H](CCCNC(=N)N)C(=O)N[C@@H](CC(N)=O)C(=O)N[C@@H](CC(C)C)C(=O)N[C@H](C(=O)N1CCC[C@H]1C(=O)N[C@@H](CCCNC(=N)N)C(=O)N[C@H](C(=O)N[C@@H](CCC(=O)O)C(=O)N[C@@H](CO)C(=O)O)[C@@H](C)O)C(C)C)[C@@H](C)CC)C(C)C)[C@@H](C)CC` [LL-37]?
A: MIC ([1]; broth microdilution, cultured in MHB + 5% lysed horse blood, 5% carbon dioxide, ~5 × 10^5 CFU/mL, peptide 256–0.5 μg/mL, 37°C 16–24 h, visible growth): 28.5 to 57.0 µM; MBC [1, 8]: 28.5 to 57.0 µM; MIC [2, 9]: 1.8 to 7.1 µM; MBC [2, 8]: 1.8 to 7.1 µM; N. gonorrhoeae killing (%) ([3]; peptide 32 μg/mL): 100%; N. gonorrhoeae killing (%) ([3]; peptide 64 μg/mL): 100%; N. gonorrhoeae killing (%) ([3]; peptide 128 μg/mL): 100%; N. gonorrhoeae killing (%) ([3]; peptide 256 μg/mL): 100%; MIC [4, 9]: 0.45 to 1.8 µM; MBC [4, 8]: 0.45 to 1.8 µM; MIC [5, 9]: 1.8 to 28.5 µM; MBC [5, 8]: 1.8 to 28.5 µM; MIC [6, 9]: 3.6 to 14.2 µM; MBC [6, 8]: 3.6 to 14.2 µM; MIC ([7]; penicillin resistant strain, broth microdilution in MHB, ~5 × 10^5 CFU/mL, peptide 256–0.5 μg/mL two-fold dilutions, 37°C 16–24 h, visible growth by unaided eye): 7.1 to 28.5 µM; MBC [7, 8]: 7.1 to 57.0 µM
